Results reported in ChEMBL document CHEMBL1201862, “PubChem BioAssay data set” (2004).
Where “and” joins values, the source holds several entries; their conditions need not be identical. Equal values may be shown once.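 Protocol summary: plate cells (96-well), add compound at 5 concentrations, incubate 48 h, interpolate endpoints linearly. GI50 = concentration required for 50% inhibition of growth.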 Calls of active or inactive are those of the source. No stated cut-off is given here; in the data, active = GI50 up to about 1.1 µM and inactive = higher.

Assays:
Assay in all cases: growth of human tumour cells (NCI), 48 h
[1] = test system: 786-0
[2] = test system: DLD-1
[3] = test system: DU-145
[4] = test system: HCT-15
[5] = test system: IGROV-1
[6] = test system: K562
[7] = test system: M14
[8] = test system: MCF7
[9] = test system: MDA-MB-435
[10] = test system: Malme-3M
[11] = test system: NCI-H226
[12] = test system: NCI-H460
[13] = test system: NCI-H522
[14] = test system: OVCAR-3
[15] = test system: OVCAR-4
[16] = test system: OVCAR-8
[17] = test system: SK-MEL-28
[18] = test system: SN12C
[19] = test system: SNB-75
[20] = test system: UO-31

SMILES	GI50 [1]	GI50 [2]	GI50 [3]	GI50 [4]	GI50 [5]	GI50 [6]	GI50 [7]	GI50 [8]	GI50 [9]	GI50 [10]	GI50 [11]	GI50 [12]	GI50 [13]	GI50 [14]	GI50 [15]	GI50 [16]	GI50 [17]	GI50 [18]	GI50 [19]	GI50 [20]
CCC(C)C(=O)O[C@H]1C(=O)O[C@@H]2C[C@H]3C(C)=CC(=O)[C@@H](O)[C@]3(C)[C@H]3[C@@H](O)[C@H](O)[C@@]4(C)OC[C@]32[C@@H]14 (stereo not given in full)	< 0.0194 µM (active)	0.0293 µM (active)	< 0.01 µM (active)	< 0.0204 µM	< 0.0191 µM (active)	0.0109 µM (active)	< 0.0144 µM (active)	< 0.01 µM (active)	< 0.01 µM (active)	< 0.0152 µM (active)	< 0.0157 µM (active)	< 0.0135 µM (active)	0.0147 µM (active)	0.0169 µM (active)	< 0.01 µM (active)	< 0.0155 µM (active)	< 0.01 µM (active)	< 0.01 µM (active)	< 0.0167 µM (active)	< 0.0217 µM (active)
N#CC(C(=O)/C(=N/N)C(C#N)c1ccc(Cl)cc1)c1ccc(Cl)cc1 (stereo not given)	> 100 µM (inactive)	> 100 µM (inactive)		> 100 µM	> 100 µM (inactive)	> 100 µM (inactive)	> 100 µM (inactive)			> 100 µM (inactive)	> 100 µM (inactive)	> 100 µM (inactive)	> 100 µM (inactive)	> 100 µM (inactive)	> 100 µM (inactive)	> 100 µM (inactive)	> 10 µM (inactive)	> 100 µM (inactive)	> 100 µM (inactive)	> 100 µM (inactive)
CC(C)=CC(=O)C1c2cccc(O)c2C(=O)c2c(O)cc(C)cc21 (stereo not given)	5.06 µM (inactive)	2.87 µM (inactive)		3.24 µM	2.09 µM (inactive)	2.65 µM (inactive)	3.25 µM (inactive)			2.76 µM (inactive)	2.24 µM (inactive)	2.32 µM (inactive)	2 µM (inactive)	1.99 µM (inactive)	2.13 µM (inactive)	2.81 µM (inactive)	3.05 µM (inactive)	5.71 µM (inactive)	2.12 µM (inactive)	2.09 µM (inactive)
C=C1C(=O)OC2/C=C(\CO)C(OC(C)=O)CC(O)/C(C)=C/C(OC(=O)C(C)CC)C12 (stereo not given)	14.8 µM (inactive) and 21.8 µM (inactive)	12.9 µM (inactive)	19.8 µM (inactive)	38.6 µM and 30.2 µM	38.4 µM (inactive) and 40 µM (inactive)		16.7 µM (inactive) and 15.8 µM (inactive)	12.9 µM (inactive)	20.3 µM (inactive)	13.5 µM (inactive) and 15.3 µM (inactive)	29.6 µM (inactive)	23.3 µM (inactive) and 38.6 µM (inactive)	4.57 µM (inactive) and 3.4 µM (inactive)	18.5 µM (inactive) and 16.5 µM (inactive)	33.5 µM (inactive) and 17.3 µM (inactive)	21.7 µM (inactive) and 17.7 µM (inactive)	18.3 µM (inactive) and 26.9 µM (inactive)	18.2 µM (inactive) and 20.2 µM (inactive)	24.3 µM (inactive)	87.1 µM (inactive) and 65.5 µM (inactive)
C=C(CS(=O)(=O)c1ccccc1)[P+](c1ccccc1)(c1ccccc1)c1ccccc1	19.9 µM (inactive)	21.4 µM (inactive)		23.6 µM	25.7 µM (inactive)	4.65 µM (inactive)	17.4 µM (inactive)			12.1 µM (inactive)	16.4 µM (inactive)	22.1 µM (inactive)	18.6 µM (inactive)	14.8 µM (inactive)	37.9 µM (inactive)	14.8 µM (inactive)	11.1 µM (inactive)	12.3 µM (inactive)	12.6 µM (inactive)	27.5 µM (inactive)
CSCC1CC(c2ccc(Cl)cc2)=NO1 (stereo not given)	> 100 µM (inactive)	> 100 µM (inactive)		> 100 µM	> 100 µM (inactive)	> 100 µM (inactive)	> 100 µM (inactive)			> 100 µM (inactive)	> 100 µM (inactive)	> 100 µM (inactive)	> 100 µM (inactive)	> 100 µM (inactive)	> 100 µM (inactive)	> 100 µM (inactive)	> 100 µM (inactive)	> 100 µM (inactive)	> 100 µM (inactive)	> 100 µM (inactive)
N#Cc1ccc(Oc2ccccc2)cc1C#N	> 100 µM (inactive)	65.2 µM (inactive)		19.1 µM	> 100 µM (inactive)	49.3 µM (inactive)	> 100 µM (inactive)			> 100 µM (inactive)	> 100 µM (inactive)	33.1 µM (inactive)	23.4 µM (inactive)	> 100 µM (inactive)	96.2 µM (inactive)	> 100 µM (inactive)	> 100 µM (inactive)	96.4 µM (inactive)	72.3 µM (inactive)	92.3 µM (inactive)
COc1ccc(/N=N/c2c(-c3ccccc3)nn(C(=O)CC(=O)Nc3ccccc3Cl)c2-c2ccccc2)cc1	> 100 µM (inactive)	> 100 µM (inactive)		58.9 µM	> 100 µM (inactive)	30.7 µM (inactive)	> 100 µM (inactive)			> 100 µM (inactive)	> 100 µM (inactive)	> 100 µM (inactive)	> 100 µM (inactive)	36.9 µM (inactive)	57 µM (inactive)	> 100 µM (inactive)	> 100 µM (inactive)	> 100 µM (inactive)	6.12 µM (inactive)	42.9 µM (inactive)
Cc1cc(C(=C2C=CC(=N)C=C2)c2ccc(N)cc2)ccc1N [FUCHSIN, BASIC]	1.09 µM (active)	3.45 µM (inactive)	5.4 µM (inactive)	12 µM	10.7 µM (inactive)	2.79 µM (inactive)	4.23 µM (inactive)	3.13 µM (inactive)	4.08 µM (inactive)	2.65 µM (inactive)	3.19 µM (inactive)	2.52 µM (inactive)	2.84 µM (inactive)	3.96 µM (inactive)	8.43 µM (inactive)	1.35 µM (inactive)	8.2 µM (inactive)	0.299 µM (active)		17.6 µM (inactive)
